This is an account of results in patent publication US4001237A, “Oxazole, isoxazole, thiazole and isothiazole amides” (priority 1976, dated 1977).

Counter-ions that a name gives are not always drawn. Like-named read-outs stand apart in the source and are kept apart here.

Assay [1] concerns the target T1, α-adrenergic receptor (Rattus norvegicus, UniProt P43140).
T1 construct: Seminal vesicles were removed and transfered to a shallow dish containing modified Tyrode's solution; from tissue; host or cells: isolated seminal vesicle of male Long Evans rats
T1 sequence (P43140 1-466): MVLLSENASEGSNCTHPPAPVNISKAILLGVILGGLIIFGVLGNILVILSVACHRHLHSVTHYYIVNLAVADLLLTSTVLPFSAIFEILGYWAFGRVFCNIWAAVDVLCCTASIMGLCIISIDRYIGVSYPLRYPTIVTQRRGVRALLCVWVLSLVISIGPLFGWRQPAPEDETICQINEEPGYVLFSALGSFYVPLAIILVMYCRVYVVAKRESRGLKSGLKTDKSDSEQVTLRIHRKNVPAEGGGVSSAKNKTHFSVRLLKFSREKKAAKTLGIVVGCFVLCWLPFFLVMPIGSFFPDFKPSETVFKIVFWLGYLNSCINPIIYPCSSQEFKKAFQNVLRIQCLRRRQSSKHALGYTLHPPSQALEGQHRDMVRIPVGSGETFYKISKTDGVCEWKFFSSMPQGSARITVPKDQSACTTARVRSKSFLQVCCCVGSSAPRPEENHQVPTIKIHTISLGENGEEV
The assay is described as follows: Isolated rat seminal vesicle assay: inhibition of norepinephrine induced contractions. The format is cell-based. As to conditions: relative to prazosin; test compound 10 nanograms/ml; shift of norepinephrine ED50, rat seminal vesicle. The method, then: (§1) In the following table, antihypertensive acitvity was determined by oral administration to spontaneous hypertensive rats, and the in vitro and in vivo α-adrenergic receptor blocking effect was determined by tests described following the table. In the in vitro test, the inhibition by the test drug of norepinephrine induced contractions of rat seminal vesicles was measured; and in the in vivo test, the inhibition by the test drug of norepinephrine induced pressor responses in anesthetized dogs was measured.
Dangan et al., Int. j. […] Lietch et al., Brit.
Male Long Evans rats weighing approximately 300 g. were sacrificed by a sharp blow on the head. Seminal vesicles were removed and transfered to a shallow dish containing modified Tyrode's solution. The vesicles were emptied of their contents by squeezing them gently with a pair of forceps. Silk thread (4-0) was attached to both ends of the vesicle and it was suspended in a 20 ml. muscle chamber containing modified oxygenated Tyrode's solution (g./liter: NaCl 8, KCl 0.2, CaCl2 0.26, NaHCO3 1, Na2 HPO4 0.575, glucose 0.5 and MgCl2 0.02). The bathing fluid was maintained at 37° C. with a thermostatically controlled isolated organ tissue bath. Contractions were recorded isometrically by means of a force displacement transducer and recordings were made with a Beckman RP Dynograph. Norepinephrine (NE) was added to the muscle chamber in volumes ranging from 0.1 to 0.4 ml. with a 1 ml. syringe attached to a 3 inch 20 gauge needle. NE and test compounds were dissolved in deionized water.
NE dose response curves were obtained alone and in the presence of test compounds. NE was allowed to remain in contact with the strip until a maximal contraction was obtained. The strip was then washed with the perfusion fluid for 15-30 seconds and the preparation was allowed to return to base line before a subsequent dose of NE was given. Increasing amounts of NE were injected into the bath in the same manner until a complete dose response was obtained.
The seminal vesicles used to obtain the control NE dose response were discarded and new preparations were placed in the tissue bath for evaluation of the test compound. The test compound was added directly to the perfusion fluid (10 nanograms/ml.) and the strips were allowed to remain in contact with the bathing media for at least 10 minutes before the NE dose response was determined. Seminal vesicles from the same rat were used for control and for test drug.
ED50 values for NE were obtained by regression analysis as described by Finney, Probit, Analysis, 2d Ed., Cambridge (1964). A minimum of 4 strips and at least 4 doses were employed to calculate the regression lines. The ED50 value is defined as the concentration of NE which produces a contraction equal to 50% of the maximal contraction.

The subject of assay [2] is spontaneous hypertensive rats. Put plainly: Antihypertensive activity by oral administration to spontaneous hypertensive rats. Particulars: for change in vivo at 1 mg/kg / change in vivo at 3 mg/kg / change in vivo at 10 mg/kg: Rattus norvegicus, read-out: Antihypertensive Activity % Blood Pressure Change. The format is in vivo, rat. The method, then: as §1
Assay [3] has as its system α-adrenergic receptor. Put plainly: Anesthetized dog assay for α-adrenergic blocking agents: inhibition of norepinephrine induced pressor responses. The format is in vivo. As to conditions: relative to prazosin; test drug 3 mg./kg. iv; norepinephrine dose raising blood pressure by 50 mm. of Hg; anesthetized dogs. The protocol:
as §1
Thus, blood pressure responses to norepinephrine (NE) in anesthetized dogs was used as a comparative assay for α-adrenergic receptor blocking properties of drugs.
Experiments were done on mongrel dogs anesthetized with sodium pentobarbital, 30 mg./kg. iv. The left femoral artery was cannulated to record aortic blood pressure and a femoral vein was cannulated for administration of drugs. All animals underwent a bilateral vagotomy. A norepinephrine dose-response curve was obtained by administering increasing doses of iv norepinephrine (0.01 - 1 μg./kg.). The test drug was then administered iv at 3 mg./kg. Approximately 30 minutes later a dose-response curve was again established for iv norepinephrine (0.01-10 μg./kg.).

[4] abbreviates: dose 1 mg/kg, oral, spontaneous hypertensive rats.
The mark [5] stands for this setting: dose 3 mg/kg, oral, spontaneous hypertensive rats.
Where [6] appears, read: dose 10 mg/kg, oral, spontaneous hypertensive rats.
Where [7] appears, read: oral, spontaneous hypertensive rats.

For the compound `COc1cc2nc(N3CCN(C(=O)c4cc(C)no4)CC3)nc(N)c2cc1OC.Cl` [Example 6, 4-Amino-6,7-dimethoxy-2-[4-(3-methylisoxazole-5-carbonyl)piperazin-1-yl]quinazoline Hydrochloride], the “α-Adrenergic Receptor Blocking Effect In Vitro Activity Ratio” value on α-adrenergic receptor [1] worked out at 0.25. In addition, the change in vivo at 1 mg/kg in assay [2] (setting [4]) was -18%. The change in vivo at 3 mg/kg in assay [2] (setting [5]) was -21%. Also, the change in vivo at 10 mg/kg in assay [2] (setting [6]) is -37%.
As to `COc1cc2nc(N3CCN(C(=O)c4cncs4)CC3)nc(N)c2cc1OC.Cl` [Example 14, 4-Amino-6,7-dimethoxy-2-[4-(thiazole-5-carbonyl)piperazin-1-yl]quinazoline Hydrochloride], the “α-Adrenergic Receptor Blocking Effect In Vitro Activity Ratio” value at α-adrenergic receptor [1] is reported as 0.10. Further, the change in vivo at 1 mg/kg in assay [2] (setting [4]) is -12%. In addition, the change in vivo at 3 mg/kg in assay [2] (setting [5]) is -22%. Besides, in assay [2] (setting [6]), the change in vivo at 10 mg/kg is -33%.
With `COc1cc2nc(N3CCN(C(=O)c4cnsc4)CC3)nc(N)c2cc1OC.Cl` [Example 10, 4-Amino-6,7-dimethoxy-2-[4-(isothiazole-4-carbonyl)piperazin-1-yl)quinazoline Hydrochloride], the change in vivo at 1 mg/kg in assay [2] (setting [4]) was -14%. Besides, the change in vivo at 3 mg/kg in assay [2] (setting [5]) was -23%. Further, the change in vivo at 10 mg/kg in assay [2] (setting [6]) was -25%. Besides, in assay [2] (setting [7]), the “"plateauing" dose response effect on blood pressure lowering” value was “maximum blood pressure lowering effect is seen at 3 mg./kg. which could not be increased at higher doses”.
Regarding `COc1cc2nc(N3CCN(C(=O)c4csc(C)n4)CC3)nc(N)c2cc1OC` [Example 13, 4-Amino-6,7-dimethyoxy-2-[4-(2-methylthiazole-4-carbonyl)piperazin-1-yl]quinazoline Hydrochloride], the “α-Adrenergic Receptor Blocking Effect In Vitro Activity Ratio” value at α-adrenergic receptor [1] was found to be 0.02. For the same compound, the change in vivo at 1 mg/kg in assay [2] (setting [4]) is -19%. The change in vivo at 3 mg/kg in assay [2] (setting [5]) was -28%. Moreover, the change in vivo at 10 mg/kg in assay [2] (setting [6]) is -28%. Besides, the “"plateauing" dose response effect on blood pressure lowering” value in assay [2] (setting [7]) was “maximum blood pressure lowering effect is seen at 3 mg./kg. which could not be increased at higher doses”.
Consider `COc1cc2nc(N3CCN(C(=O)c4ccco4)CC3)nc(N)c2cc1OC` [Prazosin, 2-[4-(2-furoyl)-piperazin-1-yl]-4-amino-6,7-dimethoxyquinazoline, reference compound], for which, in assay [2] (po), the change in vivo at 1 mg/kg is -14%, the change in vivo at 3 mg/kg is -29% and the change in vivo at 10 mg/kg was -42%.
For `COc1cc2nc(N3CCN(C(=O)c4cocn4)CC3)nc(N)c2cc1OC.Cl` [Example 7, 4-Amino-6,7-dimethoxy-2-[4-(oxazole-4-carbonyl)piperazin-1-yl]quinazoline Hydrochloride], the “α-Adrenergic Receptor Blocking Effect In Vivo Activity Ratio” value in the assay on α-adrenergic receptor [3] came to 1.22. The “α-Adrenergic Receptor Blocking Effect In Vitro Activity Ratio” value at α-adrenergic receptor [1] is reported as 0.6. In assay [2] (setting [4]), the change in vivo at 1 mg/kg is -15%. Moreover, in assay [2] (setting [5]), the change in vivo at 3 mg/kg is -29%. The change in vivo at 10 mg/kg in assay [2] (setting [6]) is -45%.
For the compound `COc1cc2nc(N3CCN(C(=O)c4cscn4)CC3)nc(N)c2cc1OC` [Example 12], at α-adrenergic receptor [1], the “α-Adrenergic Receptor Blocking Effect In Vitro Activity Ratio” value worked out at 0.12. The change in vivo at 1 mg/kg in assay [2] (setting [4]) was -20%. Besides, the change in vivo at 3 mg/kg in assay [2] (setting [5]) was -24%. Also, the change in vivo at 10 mg/kg in assay [2] (setting [6]) was -32%.
For `COc1cc2nc(N3CCN(C(=O)c4scnc4C)CC3)nc(N)c2cc1OC.Cl` [Example 16, 4-Amino-6,7-dimethoxy-2-[4-(4-methylthiazole-5-carbonyl)piperazin-1-yl]quinazoline Hydrochloride], the “α-Adrenergic Receptor Blocking Effect In Vitro Activity Ratio” value at α-adrenergic receptor [1] turned out to be 0.35. The change in vivo at 1 mg/kg in assay [2] (setting [4]) was -4%. Moreover, in assay [2] (setting [5]), the change in vivo at 3 mg/kg is -22%. Besides, the change in vivo at 10 mg/kg in assay [2] (setting [6]) is -28%.
`COc1cc2nc(N3CCN(C(=O)c4ocnc4C)CC3)nc(N)c2cc1OC.Cl` [Example 9, 4-Amino-6,7-dimethoxy-2-[4-(4-methyloxazole-5-carbonyl)piperazin-1-yl]quinazoline Hydrochloride]: the “α-Adrenergic Receptor Blocking Effect In Vitro Activity Ratio” value at α-adrenergic receptor [1] is reported as 0.19. In addition, the change in vivo at 1 mg/kg in assay [2] (setting [4]) was -14%. Moreover, the change in vivo at 3 mg/kg in assay [2] (setting [5]) was -26%. In addition, the change in vivo at 10 mg/kg in assay [2] (setting [6]) was -41%.
For `COc1cc2nc(N3CCN(C(=O)c4coc(C)n4)CC3)nc(N)c2cc1OC.Cl` [Example 8, 4-Amino-6,7-dimethoxy-2-[4-(2-methyloxazole-4-carbonyl)piperazin-1-yl]quinazoline Hydrochloride], in that order: 0.17, -13%, -31% and -35%.
For `COc1cc2nc(N3CCN(C(=O)c4cnoc4)CC3)nc(N)c2cc1OC.Cl` [Example 3, 4-Amino-6,7-dimethoxy-2-[4-(isoxazole-4-carbonyl)-piperazin-1-yl]quinazoline Hydrochloride], in that order: 0.92, -13%, -23% and -35%.
As to `COc1cc2nc(N3CCN(C(=O)c4nccs4)CC3)nc(N)c2cc1OC` [Example 11, 4-Amino-6,7-dimethoxy-2-[4-thiazole-2-carbonyl)piperazin-1-yl]quinazoline Hydrochloride], in assay [2] (setting [4]), the change in vivo at 1 mg/kg is -14%. The change in vivo at 3 mg/kg in assay [2] (setting [5]) was -27%. Further, the change in vivo at 10 mg/kg in assay [2] (setting [6]) is -33%.
`COc1cc2nc(N3CCN(C(=O)c4conc4C)CC3)nc(N)c2cc1OC.Cl` [Example 5, 4-Amino-6,7-dimethoxy-2-[4-(3-methylisoxazole-4-carbonyl)piperazin-1-yl]quinazoline Hydrochloride]: the “α-Adrenergic Receptor Blocking Effect In Vivo Activity Ratio” value with α-adrenergic receptor [3] came out at 0.18. For the same compound, the “α-Adrenergic Receptor Blocking Effect In Vitro Activity Ratio” value on α-adrenergic receptor [1] came out at 0.30. Further, the change in vivo at 1 mg/kg in assay [2] (setting [4]) is -17%. For the same compound, in assay [2] (setting [5]), the change in vivo at 3 mg/kg is -29%. In assay [2] (setting [6]), the change in vivo at 10 mg/kg was -33%.
Turning to `COc1cc2nc(N3CCN(C(=O)c4cc(C)on4)CC3)nc(N)c2cc1OC.Cl` [Example 4, 4-Amino-6,7-dimethoxy-2-[4-(5-methylisoxazole-3-carbonyl)piperazin-1-yl]quinazoline Hydrochloride], in the assay with α-adrenergic receptor [3], the “α-Adrenergic Receptor Blocking Effect In Vivo Activity Ratio” value stood at 0.24. The change in vivo at 1 mg/kg in assay [2] (setting [4]) was -14%. In addition, in assay [2] (setting [5]), the change in vivo at 3 mg/kg was -18%. Further, in assay [2] (setting [6]), the change in vivo at 10 mg/kg was -41%.
For the compound `COc1cc2nc(N3CCN(C(=O)c4ccon4)CC3)nc(N)c2cc1OC` [Example 2, 4-Amino-6,7-dimethoxy-2-[4-(isoxazole-3-carbonyl)-piperazin-1-yl]quinazoline Hydrochloride], the change in vivo at 1 mg/kg in assay [2] (setting [4]) was -12%. Further, in assay [2] (setting [5]), the change in vivo at 3 mg/kg is -26%. Moreover, the change in vivo at 10 mg/kg in assay [2] (setting [6]) is -32%.
